This passage reports IC50 results from patent US9187464B2, “TRPV4 antagonists” (GlaxoSmithKline Intellectual Property (No. 2) Limited, priority 2011, dated 2015).

SMILES strings stand for the structures.

In the experiment the target is T1, human TRPV4 (Homo sapiens, UniProt Q9HBA0).
T1 construct: expressed in transfected cells; host or cells: HEK-293-MSR-II cells transduced with 1% BacMam virus
Kind of experiment: Ligand-gated assay (Fluo4 calcium, FLIPR; inhibition of agonist-induced activation). The format is cell-based. The settings on record: HEK-293-MSR-II cells transduced with BacMam human TRPV4; agonist at EC80. The method, then: TRP channel activation/opening results in an influx of divalent and monovalent cations including calcium. The resulting changes in intracellular calcium were monitored using a calcium selective fluorescent dye Fluo4 (MDS Analytical Technologies). Dye loaded cells were initially exposed to test compound to verify a lack of agonist activity. Cells were subsequently activated by addition of an agonist and inhibition of the agonist-induced activation was recorded. Human embryonic kidney 293 cells stably expressing the macrophage scavenger receptor class II (HEK-293-MSR-II) and transduced with 1% BacMam (J. P. Condreay, S. M. Witherspoon, W. C. Clay and T. A. Kost, Proc Natl Acad Sci 96 (1999), pp. 127-132) virus expressing the human TRPV4 gene were plated at 15000 cells/well in a volume of 50 μL in a 384 well poly-D lysine coated plate. Cells were incubated for 24 hours at 37 degrees and 5% CO2. Media was then aspirated using a Tecan Plate-washer and replaced with 20 μL of dye loading buffer: HBSS, 500 uM Brilliant Black (MDS Analytical Technologies), 2 uM Fluo-4. Dye loaded plates were then incubated in the dark at room temperature for 1-1.5 hours. 10 μL of test compound diluted in HBSS (HBSS with 1.5 mM Calcium Chloride, 1.5 mM Magnesium Chloride and 10 mM HEPES. pH 7.4), +0.01% Chaps was added to the plate, incubated for 10 min at room temperature in the dark and then 10 μL of agonist was added at a final concentration equal to the agonist EC80. Calcium release was measured using the FLIPRtetra (MDS Analytical Technologies) or FLIPR384 (MDS Analytical Technologies).
IC50 between 0.1-10 nM (+++), >10-50 nM (++), >50-500 nM (+).

T1 sequence (Q9HBA0 whole entry): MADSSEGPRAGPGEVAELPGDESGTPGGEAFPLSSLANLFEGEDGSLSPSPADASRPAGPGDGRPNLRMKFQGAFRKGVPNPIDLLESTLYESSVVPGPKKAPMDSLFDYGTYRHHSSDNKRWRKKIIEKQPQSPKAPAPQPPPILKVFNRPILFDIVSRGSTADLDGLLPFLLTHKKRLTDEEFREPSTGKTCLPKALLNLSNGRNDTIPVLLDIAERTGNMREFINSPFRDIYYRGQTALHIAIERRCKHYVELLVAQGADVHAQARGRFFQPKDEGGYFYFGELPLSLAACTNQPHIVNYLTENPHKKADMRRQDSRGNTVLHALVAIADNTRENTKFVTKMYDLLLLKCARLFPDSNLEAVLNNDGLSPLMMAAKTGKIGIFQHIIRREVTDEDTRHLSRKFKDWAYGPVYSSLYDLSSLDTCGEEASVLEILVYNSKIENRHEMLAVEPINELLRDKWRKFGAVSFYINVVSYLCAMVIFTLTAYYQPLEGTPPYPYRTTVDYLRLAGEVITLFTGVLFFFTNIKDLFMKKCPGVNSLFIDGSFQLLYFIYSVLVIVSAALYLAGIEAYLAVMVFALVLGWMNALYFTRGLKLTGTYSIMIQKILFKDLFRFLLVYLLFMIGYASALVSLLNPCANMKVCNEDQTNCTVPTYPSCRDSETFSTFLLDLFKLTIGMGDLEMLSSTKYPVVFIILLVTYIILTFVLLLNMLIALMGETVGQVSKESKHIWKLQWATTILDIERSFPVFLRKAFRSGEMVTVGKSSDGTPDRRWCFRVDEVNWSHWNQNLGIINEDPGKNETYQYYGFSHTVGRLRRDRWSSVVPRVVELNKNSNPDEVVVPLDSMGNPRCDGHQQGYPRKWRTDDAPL

As usually defined, the IC50 is the concentration that inhibits the measured activity by half. For the compound `CC(C)(C)OC(=O)OCC(C)(C)c1cc(N2C[C@@]3(CCC[C@](C)(Cn4cnc5ccc(C#N)cc54)C3)OC2=O)on1` [Example 20, Tert-butyl (2-(5-((5S,7S)-7-((6-cyano-1H-benzo[d]imidazol-1-yl)methyl)-7-methyl-2-oxo-1-oxa-3-azaspiro[4.5]decan-3-yl)isoxazol-3-yl)-2-methylpropyl) carbonate], the IC50 is 0.1 to 10 nM.

In the case of `CC(C)(CO)c1cc(N2C[C@@]3(CCC[C@](C)(Cn4cnc5ccc(C#N)cc54)C3)OC2=O)on1` [Example 21, 1-(((5S,7S)-3-(3-(1-Hydroxy-2-methylpropan-2-yl)isoxazol-5-yl)-7-methyl-2-oxo-1-oxa-3-azaspiro[4.5]decan-7-yl)methyl)-1H-benzo[d]imidazole-6-carbonitrile], the IC50 was 50 to 500 nM.

As to `COc1cc(OC)c(N2C[C@@]3(CCC[C@](C)(Cn4cnc5ccc(C#N)cc54)C3)OC2=O)cn1` [Example 22, 1-(((5S,7S)-3-(4,6-Dimethoxyipyridin-3-yl)-7-methyl-2-oxo-1-oxa-3-azasbiro[4.5]decan-7-yl)methyl)-1H-benzo[d]imidazole-6-carbonitrile], the IC50 was in the range of 0.1 to 10 nM. Next, `CCOc1cc(C)c(N2C[C@@]3(CCC[C@H](Cn4cnc5ccc(C#N)cc54)C3)OC2=O)cn1` [Example 23, 1-(((5S,7S)-3-(6-Ethoxy-4-methylpyridin-3-yl)-2-oxo-1-oxa-3-azasbiro[4.5]decan-7-yl)methyl)-1H-benzo[d]imidazole-6-carbonitrile]: 10 to 50 nM; `CCOc1cc(C)c(N2C[C@@]3(CCC[C@](C)(Cn4cnc5ccc(C#N)cc54)C3)OC2=O)nn1` [Example 24, 1-(((5S,7S)-3-(6-Ethoxy-4-methylpyridazin-3-yl)-7-methyl-2-oxo-1-oxa-3-azaspiro[4.5]decan-7-yl)methyl)-1H-benzo[d]imidazole-6-carbonitrile]: 0.1 to 10 nM; `C[C@]1(Cn2cnc3ccc(C#N)cc32)CCC[C@@]2(CN(c3cnc(C(F)(F)F)nc3)C(=O)O2)C1` [Example 25, 1-(((5S,7S)-7-Methyl-2-oxo-3-(2-(trifluoromethyl)pyrimidin-5-yl)-1-oxa-3-azaspiro[4.5]decan-7-yl)methyl)-1H-benzo[d]imidazole-6-carbonitrile]: 0.1 to 10 nM. With `C[C@]1(Cn2cnc3ccc(C#N)cc32)CCC[C@@]2(CN(c3ncccc3C(F)(F)F)C(=O)O2)C1` [Example 26, 1-(((5S,7S)-7-Methyl-2-oxo-3-(3-(trifluoromethyl)pyridin-2-yl)-1-oxa-3-azaspiro[4.5]decan-7-yl)methyl)-1H-benzo[d]imidazole-6-carbonitrile], the IC50 is 50 to 500 nM. Under `N#Cc1ccc2ncn(C[C@H]3CCC[C@]4(C3)CN(Cc3csc5ccc(Cl)cc35)C(=O)O4)c2c1` [Example 27, 1-({(5S,7S)-3-[(5-Chloro-1-benzothien-3-yl)methyl]-2-oxo-1-oxa-3-azaspiro[4.5]dec-7-yl}methyl)-1H-benzimidazole-6-carbonitrile] stands 0.1 to 10 nM; under `CCOC(C)c1noc(C(C)(C)CN2C[C@@]3(CCC[C@H](Cn4cnc5ccc(C#N)cc54)C3)OC2=O)n1` (stereo partly drawn) [Example 28, 1-{[(5S,7S)-3-(2-{3-[1-(Ethyloxy)ethyl]-1,2,4-oxadiazol-5-yl}-2-methylpropyl)-2-oxo-1-oxa-3-azaspiro[4.5]dec-7-yl]methyl}-1H-benzimidazole-6-carbonitrile], 0.1 to 10 nM. Next, `Cc1ccc(N2C[C@@]3(CCC[C@](C)(Cn4cnc5ccc(C#N)cc54)C3)OC2=O)nc1` [Example 29, 1-{[(5S,7S)-7-methyl-3-(5-methyl-2-pyridinyl)-2-oxo-1-oxa-3-azaspiro[4.5]dec-7-yl]methyl}-1H-benzimidazole-6-carbonitrile]: 10 to 50 nM; `CC(C)c1cc(N2C[C@@]3(CCC[C@](C)(Cn4cnc5ccc(C#N)cc54)C3)OC2=O)on1` [Example 30, 1-({(5S,7S)-7-methyl-3-[3-(1-methylethyl)-5-isoxazolyl]-2-oxo-1-oxa-3-azaspiro[4.5]dec-7-yl}methyl)-1H-benzimidazole-6-carbonitrile]: 10 to 50 nM.
